Here are results for 13 compounds from patent US20260007681A1, “INDOLE DERIVATIVES AS ESTROGEN RECEPTOR DEGRADERS” (REGENTS OF THE UNIVERSITY OF MICHIGAN, priority 2022, published 2026).

One assay deals with ER (Homo sapiens (Human), UniProt P03372). Nature of the assay: In-cell western blot analysis of relative ER percentage (Compounds B1-B278). Type of assay: cell-based. The following applies: ER degradation, 16 hours, read-out: ICW DC50. In short, it runs like this:
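Cells seeded at 40,000 or 10,000 cells/well and treated with compound (final 0.5% DMSO) for 16 h, then formaldehyde-fixed, Triton-permeabilized and co-stained for ER and GAPDH with 680/800 secondaries; LI-COR plate read. ER level expressed relative to untreated/DMSO-treated wells set at 100%.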

Assay [1] can be described thus: Cell growth assay (WST-8) (Compounds B1-B278). In kind it is cell-based. Conditions: T47D cell line, WST-8, 4 days, read-out: Cell Growth Inhibition in T47D cell line IC50. In short, it runs like this:
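Cells seeded at 1500/well overnight, treated one day later with compound doses for 4 days, then 10% WST-8 added for 2.5 h at 37° C in CO2. Absorbance at 450 nm, expressed relative to vehicle control over three independent repeats.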

Structures are written as SMILES. Like-named read-outs stand apart in the source and are kept apart here. Some results are limits rather than exact numbers.

Chain of ER (P03372 whole entry): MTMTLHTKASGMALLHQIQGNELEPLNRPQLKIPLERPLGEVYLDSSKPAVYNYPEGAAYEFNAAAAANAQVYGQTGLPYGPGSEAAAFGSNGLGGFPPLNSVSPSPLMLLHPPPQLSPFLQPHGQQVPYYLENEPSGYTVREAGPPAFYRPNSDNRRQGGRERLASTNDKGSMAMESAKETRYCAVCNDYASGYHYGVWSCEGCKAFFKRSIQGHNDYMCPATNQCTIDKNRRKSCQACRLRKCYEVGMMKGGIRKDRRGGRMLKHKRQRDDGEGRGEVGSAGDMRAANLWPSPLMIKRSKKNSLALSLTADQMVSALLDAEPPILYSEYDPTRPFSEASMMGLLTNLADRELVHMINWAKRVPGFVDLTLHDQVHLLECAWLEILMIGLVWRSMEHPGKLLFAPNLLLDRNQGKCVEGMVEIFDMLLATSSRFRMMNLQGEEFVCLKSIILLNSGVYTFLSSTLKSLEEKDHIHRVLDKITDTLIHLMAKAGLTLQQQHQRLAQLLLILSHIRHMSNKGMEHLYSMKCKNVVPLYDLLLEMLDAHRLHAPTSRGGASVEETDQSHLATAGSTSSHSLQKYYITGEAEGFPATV

Consider `COc1cc(N2CCC3(CC2)CC(CN2CCN4c5cc6c(cc5OC[C@@H]4C2)C(=O)N(C2CCC(=O)NC2=O)C6)C3)ccc1[C@@H]1c2[nH]c3ccccc3c2C[C@@H](C)N1CC(F)F` (stereo partly drawn) [Compound B141, 3-((S)-3-((7-(4-((1R,3R)-2-(2,2-difluoroethyl)-3-methyl-2,3,4,9-tetrahydro-1H-pyrido[3,4-b]indol-1-yl)-3-methoxyphenyl)-7-azaspiro[3.5]nonan-2-yl)methyl)-8-oxo-1,2,3,4,4a,5,8,10-octahydro-9H-pyrazino[1′,2′:4,5][1,4]oxazino[2,3-f]isoindol-9-yl)piperidine-2,6-dione], for which, at ER, the DC50 was under 10 nM. Besides, the IC50 in assay [1] (96 h) fell in the range of 1 to 10 nM.
The like results for `COc1cc(N2CCC3(CC2)CC(CN2CCN4c5cc6c(cc5OC[C@@H]4C2)C(=O)N(C2CCC(=O)NC2=O)C6)CO3)ccc1[C@@H]1c2[nH]c3ccccc3c2C[C@@H](C)N1CC(F)F` (stereo partly drawn) [Compound B142, 3-((4aS)-3-((8-(4-((1R,3R)-2-(2,2-difluoroethyl)-3-methyl-2,3,4,9-tetrahydro-1H-pyrido[3,4-b]indol-1-yl)-3-methoxyphenyl)-1-oxa-8-azaspiro[4.5]decan-3-yl)methyl)-8-oxo-1,2,3,4,4a,5,8,10-octahydro-9H-pyrazino[1′,2′:4,5][1,4]oxazino[2,3-f]isoindol-9-yl)piperidine-2,6-dione] were, in that order, 10 to 100 nM and under 1 nM.
The matching figures for `COc1cc(N2CCC3(CC2)CC(CN2CCN4c5ccc6c(c5OC[C@H]4C2)CN(C2CCC(=O)NC2=O)C6=O)CO3)ccc1[C@@H]1c2[nH]c3ccccc3c2C[C@@H](C)N1CC(F)F` (stereo partly drawn) [Compound B143, 3-((5aR)-7-((8-(4-((1R,3R)-2-(2,2-difluoroethyl)-3-methyl-2,3,4,9-tetrahydro-1H-pyrido[3,4-b]indol-1-yl)-3-methoxyphenyl)-1-oxa-8-azaspiro[4.5]decan-3-yl)methyl)-1-oxo-1,3,5,5a,6,7,8,9-octahydro-2H-pyrazino[1′,2′:4,5][1,4]oxazino[2,3-e]isoindol-2-yl)piperidine-2,6-dione]: under 10 nM and under 1 nM.
Take `COc1cc(N2CCC3(CC2)CC(CN2CCN4c5ccc6c(c5OC[C@H]4C2)CN(C2CCC(=O)NC2=O)C6=O)CO3)ccc1[C@@H]1c2[nH]c3ccccc3c2C[C@@H](C)N1CC(F)F` (stereo partly drawn) [Compound B144, (3S)-3-((5aR)-7-((8-(4-((1R,3R)-2-(2,2-difluoroethyl)-3-methyl-2,3,4,9-tetrahydro-1H-pyrido[3,4-b]indol-1-yl)-3-methoxyphenyl)-1-oxa-8-azaspiro[4.5]dccan-3-yl)methyl)-1-oxo-1,3,5,5a,6,7,8,9-octahydro-2H-pyrazino[1′,2′:4,5][1,4]oxazino[2,3-e]isoindol-2-yl)piperidine-2,6-dione]: the DC50 on ER is under 10 nM. In addition, the IC50 in assay [1] is under 1 nM.
As for `C[C@@H]1Cc2c([nH]c3ccccc23)[C@@H](c2ccc(N3CCC4(CC3)CC(CN3CCC5(CC3)COc3c5ccc5c3CN(C3CCC(=O)NC3=O)C5=O)CO4)cn2)N1CC(F)(F)F` (stereo partly drawn) [Compound B145, 3-(1′-((8-(6-((1S,3R)-3-methyl-2-(2,2,2-trifluoroethyl)-2,3,4,9-tetrahydro-1H-pyrido[3,4-b]indol-1-yl)pyridin-3-yl)-1-oxa-8-azaspiro[4.5]decan-3-yl)methyl)-6-oxo-6,8-dihydro-2H,7H-spiro[furo[2,3-e]isoindole-3,4′-piperidin]-7-yl)piperidine-2,6-dionc], the DC50 on ER was under 10 nM. Besides, the 50% inhibitory concentration (IC50) in assay [1] (96 h) is under 1 nM.
`C[C@@H]1Cc2c([nH]c3ccccc23)[C@@H](c2ccc(N3CCC4(CC3)CC(CN3CCN5c6ccc7c(c6OC[C@H]5C3)CN([C@H]3CCC(=O)NC3=O)C7=O)CO4)cn2)N1CC(F)(F)F` (stereo partly drawn) [Compound B146, (3S)-3-((5aR)-7-((8-(6-((1S,3R)-3-methyl-2-(2,2,2-trifluoroethyl)-2,3,4,9-tetrahydro-1H-pyrido[3,4-b]indol-1-yl)pyridin-3-yl)-1-oxa-8-azaspiro[4.5]decan-3-yl)methyl)-1-oxo-1,3,5,5a,6,7,8,9-octahydro-2H-pyrazino[1′,2′:4,5][1,4]oxazino[2,3-e]isoindol-2-yl)piperidine-2,6-dione]: the DC50 on ER was 10 to 100 nM. Further, in assay [1] (96 h), the IC50 fell in the range of 1 to 10 nM.
The matching figures for `C[C@@H]1Cc2c([nH]c3ccccc23)[C@@H](c2ccc(N3CCC4(CC3)CC(CN3CCN5c6cc7c(cc6OC[C@@H]5C3)C(=O)N(C3CCC(=O)NC3=O)C7)CO4)cn2)N1CC(F)(F)F` (stereo partly drawn) [Compound B147, 3-((4aS)-3-((8-(6-((1S,3R)-3-methyl-2-(2,2,2-trifluoroethyl)-2,3,4,9-tetrahydro-1H-pyrido[3,4-b]indol-1-yl)pyridin-3-yl)-1-oxa-8-azaspiro[4.5]dccan-3-yl)methyl)-8-oxo-1,2,3,4,4a,5,8,10-octahydro-9H-pyrazino[1′,2′:4,5][1,4]oxazino[2,3-f]isoindol-9-yl)piperidine-2,6-dione]: 10 to 100 nM and 1 to 10 nM.
`C[C@@H]1Cc2c([nH]c3ccccc23)[C@@H](c2c(F)cc(N3CCC(CN4CCN5c6ccc7c(c6OC[C@H]5C4)CN(C4CCC(=O)NC4=O)C7=O)CC3)cc2F)N1CC(F)(F)CO` (stereo partly drawn) [Compound B148, 3-((R)-7-((1-(4-((1R,3R)-2-(2,2-difluoro-3-hydroxypropyl)-3-methyl-2,3,4,9-tetrahydro-1H-pyrido[3,4-b]indol-1-yl)-3,5-difluorophenyl)piperidin-4-yl)methyl)-1-oxo-1,3,5,5a,6,7,8,9-octahydro-2H-pyrazino[1′,2′:4,5][1,4]oxazino[2,3-e]isoindol-2-yl)piperidine-2,6-dione]: the 50% degradation concentration (DC50) at ER was over 100 nM. Further, the IC50 in assay [1] (96 h) was under 1 nM.
Take `C[C@@H]1Cc2c([nH]c3ccccc23)[C@@H](c2c(F)cc(N3CC[C@@H](CN4CCN5c6ccc7c(c6OC[C@H]5C4)CN(C4CCC(=O)NC4=O)C7=O)C3)cc2F)N1CC(F)(F)CO` (stereo partly drawn) [Compound B149, 3-((R)-7-(((S)-1-(4-((1R,3R)-2-(2,2-difluoro-3-hydroxypropyl)-3-methyl-2,3,4,9-tetrahydro-1H-pyrido[3,4-b]indol-1-yl)-3,5-difluorophenyl)pyrrolidin-3-yl)methyl)-1-oxo-1,3,5,5a,6,7,8,9-octahydro-2H-pyrazino[1′,2′:4,5][1,4]oxazino[2,3-e]isoindol-2-yl)piperidine-2,6-dione]: the DC50 on ER is over 100 nM. Also, the IC50 in assay [1] (96 h) lay within 1 to 10 nM.
The like results for `C[C@@H]1Cc2c([nH]c3ccccc23)[C@@H](c2c(F)cc(N3CC[C@H](CN4CCN5c6ccc7c(c6OC[C@H]5C4)CN(C4CCC(=O)NC4=O)C7=O)C3)cc2F)N1CC(F)(F)CO` (stereo partly drawn) [Compound B150, 3-((R)-7-(((R)-1-(4-((1R,3R)-2-(2,2-difluoro-3-hydroxypropyl)-3-methyl-2,3,4,9-tetrahydro-1H-pyrido[3,4-b]indol-1-yl)-3,5-difluorophenyl)pyrrolidin-3-yl)methyl)-1-oxo-1,3,5,5a,6,7,8,9-octahydro-2H-pyrazino[1′,2′:4,5][1,4]oxazino[2,3-e]isoindol-2-yl)piperidine-2,6-dione] were, in that order, 10 to 100 nM and 1 to 10 nM.
The matching figures for `C[C@@H]1Cc2c([nH]c3ccccc23)[C@@H](c2c(F)cc(N3CCN(C(=O)CN4CCN5c6ccc7c(c6OC[C@H]5C4)CN(C4CCC(=O)NC4=O)C7=O)CC3)cc2F)N1CC(F)F` (stereo partly drawn) [Compound B151, 3-((R)-7-(2-(4-(4-((1R,3R)-2-(2,2-difluoroethyl)-3-methyl-2,3,4,9-tetrahydro-1H-pyrido[3,4-b]indol-1-yl)-3,5-difluorophenyl)piperazin-1-yl)-2-oxoethyl)-1-oxo-1,3,5,5a,6,7,8,9-octahydro-2H-pyrazino[1′,2′:4,5][1,4]oxazino[2,3-e]isoindol-2-yl)piperidine-2,6-dione]: over 100 nM and under 1 nM.
The matching figures for `C[C@@H]1Cc2c([nH]c3ccccc23)[C@@H](c2cnc(N3CCC4(CC3)CC(CN3CCN5c6ccc7c(c6OC[C@H]5C3)CN(C3CCC(=O)NC3=O)C7=O)C4)nc2)N1CC(F)(F)CO` (stereo partly drawn) [Compound B153, 3-((R)-7-((7-(5-((1R,3R)-2-(2,2-difluoro-3-hydroxypropyl)-3-methyl-2,3,4,9-tetrahydro-1H-pyrido[3,4-b]indol-1-yl)pyrimidin-2-yl)-7-azaspiro[3.5]nonan-2-yl)methyl)-1-oxo-1,3,5,5a,6,7,8,9-octahydro-2H-pyrazino[1′,2′:4,5][1,4]oxazino[2,3-e]isoindol-2-yl)piperidine-2,6-dione]: 10 to 100 nM and 1 to 10 nM.
Turning to `C[C@@H]1Cc2c([nH]c3ccccc23)[C@@H](c2cnc(N3CC4(CCC(CN5CCN6c7ccc8c(c7OC[C@H]6C5)CN(C5CCC(=O)NC5=O)C8=O)CC4)C3)nc2)N1CC(F)(F)CO` (stereo partly drawn) [Compound B154, 3-((R)-7-((2-(5-((1R,3R)-2-(2,2-difluoro-3-hydroxypropyl)-3-methyl-2,3,4,9-tetrahydro-1H-pyrido[3,4-b]indol-1-yl)pyrimidin-2-yl)-2-azaspiro[3.5]nonan-7-yl)methyl)-1-oxo-1,3,5,5a,6,7,8,9-octahydro-2H-pyrazino[1′,2′:4,5][1,4]oxazino[2,3-e]isoindol-2-yl)piperidine-2,6-dione], on ER, the DC50 is 10 to 100 nM. For the same compound, the IC50 in assay [1] (96 h) was 1 to 10 nM.

Broadly, the DC50 is the midpoint of the concentration-degradation curve. By IC50 is commonly meant the concentration that gives 50% inhibition.
